Measurements as given in ChEMBL document CHEMBL1201862, “PubChem BioAssay data set” (2004).
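48-hour exposure; five concentrations; linearly interpolated endpoints. GI50 marks 50% less growth.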 Active and inactive are the calls of the source. Rule as the data show it: active = GI50 up to about 1.1 µM and inactive = higher. Numbered stars: 1 amine (or outer) side, 2 acyl side, 3 side chain; on linkers, the order of the positions; unused ones are H or OH. Bridge positions count the residues as written; N and C are the ends. Square brackets hold non-standard residues; d marks the D form. Peptide text beside a SMILES is read from it. I, II: the chains in the order shown. Actinocin(9to1) = Cc1c2oc3c(C)ccc(C(=O)[*:1])c3nc-2c(C(=O)[*:2])c(N)c1=O; X48 = O=C1CC(C(=O)[*:2])N([*:1])C1; NMeV = CN[CH](C(=O)O)C(C)C; Sar = CNCC(=O)O

Experiments:
Test in all cases: NCI-60 cell line screen, 48 h
UO-31 = test system: UO-31
U-251 = test system: U-251
A549 = test system: A549
SK-OV-3 = test system: SK-OV-3
MDA-MB-435 = test system: MDA-MB-435
SN12C = test system: SN12C
OVCAR-4 = test system: OVCAR-4
PC-3 = test system: PC-3
LOX IMVI = test system: LOX IMVI
MDA-N = test system: MDA-N
SK-MEL-2 = test system: SK-MEL-2
HCT-15 = test system: HCT-15
SR = test system: SR
SF-539 = test system: SF-539
KM12 = test system: KM12
SNB-19 = test system: SNB-19
NCI-H23 = test system: NCI-H23
SNB-75 = test system: SNB-75
DU-145 = test system: DU-145
A498 = test system: A498

Measured: GI50

CCOC(=O)C(NC(=O)c1ccccc1)(N1CCOCC1)C(F)(F)F (configuration not stated)
> 100 µM: HCT-15
inactive: UO-31 > 100 µM | U-251 > 100 µM | A549 > 100 µM | SK-OV-3 > 100 µM | MDA-MB-435 > 100 µM | SN12C > 100 µM | OVCAR-4 > 100 µM | PC-3 > 100 µM | LOX IMVI > 100 µM | MDA-N > 100 µM | SK-MEL-2 > 100 µM | SR > 100 µM | SF-539 > 100 µM | KM12 > 100 µM | SNB-19 > 100 µM | NCI-H23 > 100 µM | SNB-75 > 100 µM | DU-145 > 100 µM

COc1ccc([C@H]2[C@H](C)C3=Nc4ccccc4CN32)cc1
inactive: UO-31 > 100 µM | U-251 51.5 µM | A549 55.1 µM | MDA-MB-435 31.4 µM | SN12C 63 µM | OVCAR-4 > 100 µM | PC-3 > 100 µM | LOX IMVI 39.8 µM | A498 > 100 µM | MDA-N 20.7 µM | SK-MEL-2 > 100 µM | SR 36.8 µM | SF-539 39.3 µM | KM12 42.6 µM | SNB-19 > 100 µM | NCI-H23 69.8 µM | DU-145 > 100 µM
76.2 µM: HCT-15

COc1ccc(OC)c([N+](=O)[O-])c1-c1nc2sccn2c1/C=N/N=C(N)N
> 100 µM: HCT-15
inactive: UO-31 > 100 µM | U-251 41.1 µM | A549 > 100 µM | SK-OV-3 61.7 µM | MDA-MB-435 52.7 µM | SN12C > 100 µM | PC-3 53 µM | LOX IMVI 36.9 µM | A498 > 100 µM | MDA-N 49.8 µM | SK-MEL-2 33.3 µM | SR 30.6 µM | SF-539 > 100 µM | KM12 27.6 µM | SNB-19 > 100 µM | NCI-H23 > 100 µM | DU-145 > 100 µM

CC1CC[C@@]2(OC1)OC1C[C@H]3[C@@H]4C/C(=N\N(C)C)[C@@]5(O)CC(O)CC[C@]5(C)[C@H]4CC[C@]3(C)C1[C@@H]2C (some centres not stated)
inactive: UO-31 55.5 µM | U-251 37.2 µM | A549 48.6 µM | SK-OV-3 76.6 µM | MDA-MB-435 29.8 µM | SN12C 43.1 µM | OVCAR-4 74.6 µM | PC-3 33.7 µM | LOX IMVI 42.5 µM | A498 34.7 µM | MDA-N 23.3 µM | SK-MEL-2 36.7 µM | SR 22.5 µM | SF-539 36 µM | KM12 29.3 µM | SNB-19 38.7 µM | NCI-H23 30.5 µM | DU-145 > 100 µM
67.1 µM: HCT-15

CC(=O)/N=C1\NC(=O)/C(=C/c2ccccc2Cl)N1C
inactive: UO-31 > 100 µM | U-251 > 100 µM | A549 > 100 µM | SK-OV-3 > 100 µM | MDA-MB-435 > 100 µM | SN12C > 100 µM | OVCAR-4 > 100 µM | PC-3 > 100 µM | LOX IMVI > 100 µM | MDA-N > 100 µM | SK-MEL-2 > 100 µM | SF-539 > 100 µM | KM12 > 100 µM | SNB-19 > 100 µM | NCI-H23 > 100 µM | SNB-75 > 100 µM | DU-145 > 100 µM
65.9 µM: HCT-15

OCCc1ccsc1-c1sc(-c2cc(CCO)c(-c3sccc3CCO)s2)cc1CCO
12.4 µM: HCT-15
inactive: UO-31 12.4 µM | U-251 12.7 µM | A549 29 µM | SK-OV-3 17.5 µM | MDA-MB-435 17.7 µM | SN12C 21.3 µM | OVCAR-4 15.6 µM | PC-3 11.8 µM | LOX IMVI 5.45 µM | A498 22.5 µM | MDA-N 21.6 µM | SK-MEL-2 14.7 µM | SR 20.7 µM | KM12 3.38 µM | SNB-19 13.6 µM | NCI-H23 15.8 µM | DU-145 15.5 µM

O=C(NN=C1NCCCN1)c1ccco1
> 100 µM: HCT-15
inactive: UO-31 > 100 µM | U-251 > 100 µM | A549 > 100 µM | SK-OV-3 > 100 µM | MDA-MB-435 > 100 µM | SN12C > 100 µM | OVCAR-4 > 100 µM | PC-3 > 100 µM | LOX IMVI > 100 µM | MDA-N > 100 µM | SK-MEL-2 > 100 µM | SR > 100 µM | SF-539 > 100 µM | KM12 > 100 µM | SNB-19 > 100 µM | NCI-H23 > 100 µM | SNB-75 > 100 µM | DU-145 > 100 µM

CCOC(=O)c1c(SCC#N)n(-c2ccccc2)c(=S)n(-c2ccccc2)c1=O
inactive: UO-31 37.5 µM | U-251 33 µM | A549 39.4 µM | SK-OV-3 35.9 µM | MDA-MB-435 38.7 µM | SN12C 32.4 µM | OVCAR-4 40.7 µM | PC-3 18.8 µM | LOX IMVI 14.7 µM | MDA-N 82.8 µM | SK-MEL-2 39.5 µM | SR 44 µM | KM12 47 µM | SNB-19 37.8 µM | NCI-H23 45.7 µM | SNB-75 25.8 µM | DU-145 > 100 µM
25.8 µM: HCT-15

O=C1C(=Cc2ccc(O)cc2)N=C(c2ccccc2)N1n1c(-c2ccccc2)nc2ccccc2c1=O
38.9 µM: HCT-15
inactive: UO-31 > 100 µM | A549 > 100 µM | SK-OV-3 > 100 µM | MDA-MB-435 > 100 µM | SN12C > 10 µM | PC-3 34.8 µM | LOX IMVI > 100 µM | MDA-N > 100 µM | SF-539 > 100 µM | KM12 > 100 µM | SNB-19 > 100 µM | NCI-H23 71.6 µM | SNB-75 > 100 µM | DU-145 > 100 µM

C#CCn1c(=O)c2cc(OC)c(OC)cc2n(CC#C)c1=O
> 10 µM: HCT-15
inactive: UO-31 > 10 µM | U-251 > 10 µM | A549 > 10 µM | SK-OV-3 > 10 µM | MDA-MB-435 > 10 µM | SN12C > 10 µM | OVCAR-4 > 10 µM | PC-3 > 10 µM | LOX IMVI > 10 µM | A498 > 10 µM | MDA-N > 10 µM | SK-MEL-2 > 10 µM | SF-539 > 10 µM | KM12 > 10 µM | SNB-19 > 10 µM | NCI-H23 > 10 µM | SNB-75 > 10 µM | DU-145 > 10 µM

COC(=O)[C@@]12CC3CN(Cc4c1[nH]c1ccccc41)C2CC3=O
> 100 µM: HCT-15
inactive: U-251 > 100 µM | A549 > 100 µM | SK-OV-3 > 100 µM | MDA-MB-435 > 100 µM | SN12C > 100 µM | OVCAR-4 > 100 µM | PC-3 > 100 µM | LOX IMVI > 100 µM | MDA-N > 100 µM | SK-MEL-2 > 100 µM | SF-539 > 100 µM | KM12 > 100 µM | SNB-19 > 100 µM | NCI-H23 > 100 µM | SNB-75 74.8 µM | DU-145 > 100 µM

Nc1nc(Cl)cc(OCC2(CO)CCCC2)n1
> 100 µM: HCT-15
inactive: U-251 > 100 µM | A549 > 100 µM | MDA-MB-435 > 100 µM | SN12C > 100 µM | OVCAR-4 > 100 µM | PC-3 > 100 µM | LOX IMVI > 100 µM | A498 > 100 µM | MDA-N > 100 µM | SF-539 > 100 µM | SNB-19 > 100 µM | NCI-H23 > 100 µM | SNB-75 > 100 µM | DU-145 > 100 µM

Cc1nc2ccc(S(=O)(=O)Nc3ccc(Cl)cc3)cc2c(=O)n1NC(=O)CNc1ccc(Cl)cc1
inactive: UO-31 > 100 µM | U-251 > 100 µM | A549 > 100 µM | SK-OV-3 > 100 µM | MDA-MB-435 > 100 µM | SN12C > 100 µM | OVCAR-4 > 100 µM | PC-3 > 100 µM | LOX IMVI > 100 µM | MDA-N > 100 µM | SK-MEL-2 > 100 µM | SR > 100 µM | SF-539 > 100 µM | KM12 64 µM | SNB-19 > 100 µM | NCI-H23 > 100 µM | SNB-75 > 100 µM | DU-145 > 100 µM
> 100 µM: HCT-15

NC(Cc1ccc(S(=O)(=O)O)cc1)C(=O)NC(Cc1ccc(S(=O)(=O)O)cc1)C(=O)O (configuration not stated)
> 100 µM: HCT-15
inactive: UO-31 > 100 µM | U-251 > 100 µM | A549 > 100 µM | MDA-MB-435 > 100 µM | SN12C > 100 µM | OVCAR-4 > 100 µM | PC-3 > 100 µM | LOX IMVI > 100 µM | A498 > 100 µM | MDA-N > 100 µM | SK-MEL-2 > 100 µM | SF-539 > 100 µM | KM12 > 100 µM | NCI-H23 > 100 µM | SNB-75 > 100 µM | DU-145 > 100 µM

Cc1c2oc3c(C)ccc(C(=O)NC4C(=O)NC(C(C)C)C(=O)N5CC(=O)CC5C(=O)N(C)CC(=O)N(C)C(C(C)C)C(=O)OC4C)c3nc-2c(C(=O)NC2C(=O)NC(C(C)C)C(=O)N3CC(=O)CC3C(=O)N(C)CC(=O)N(C)C(C(C)C)C(=O)OC2C)c(N)c1=O (configuration not stated) (I: TV[X48][Sar][NMeV] / II: TV[X48][Sar][NMeV]; ester I:1-I:C, II:1-II:C; linker I:N-II:N via Actinocin(9to1); configuration not given here)
active: UO-31 > 1 µM | U-251 > 1 µM | A549 0.253 µM | SK-OV-3 > 1 µM | MDA-MB-435 > 1 µM | SN12C > 1 µM | OVCAR-4 > 1 µM | PC-3 > 1 µM | LOX IMVI > 1 µM | A498 > 1 µM | MDA-N > 1 µM | SK-MEL-2 > 1 µM | SR 0.948 µM | SF-539 > 1 µM | SNB-19 > 1 µM | NCI-H23 > 1 µM | DU-145 > 1 µM
> 1 µM: HCT-15
